According to paper PMC8161485 (ACS Central Science, 2021):
Entries after “also recorded” stand apart in the source; their conditions may differ.

Tested on: heme oxygenase 1 (HO-1)
Test: Induction of heme oxygenase 1 in primary AML specimens
Assay type: cell-based, human
Settings: compared to vehicle-only control

C=C1C(=O)O[C@H]2[C@H]1CC/C(C)=C/CC[C@@]1(C)O[C@@H]21 [PTL, parthenolide]
induction of heme oxygenase 1 (HO-1): Dose-dependent induction; also recorded: comparatively larger induction of HO-1 at lower doses
